# Measurements published in publication PMC10603899, “Reproducibility and Robustness of a Liver Microphysiological System PhysioMimix LC12 under Varying Culture Conditions and Cell Type Combinations” (Bioengineering, 2023).
# Read-outs that look alike come from different tables or passages of the source.
# Experiments:
# PHH (TF-HU8373) + THP-1 [1] = assay: Midazolam metabolism (1′-OH MDZ formation) in 96-well plate, PHH + THP-1; assay type: in vitro ADME, human; details: PHH + THP-1, day 2, incubation 24 h
# PHH (various donors) [2] = test system: PHH (various donors); design: method as in PMID 25068923; details: LiverChip, day 4 of culture, estimated from figures, cited from earlier work
# PHH (various donors) [3] = test system: PHH (various donors); design: method as in PMID 27338863; details: Suspension, day 0 of culture, incubation 0.17 h; cited from earlier work
# PHH (TF-HU8373) + THP-1 [4] = assay: Midazolam metabolism (1′-OH MDZ formation) in PhysioMimix LC-12, PHH + THP-1 co-culture; assay type: in vitro ADME, human; details: 5 µM MDZ
# Description: Metabolic capacity was assessed across the various cell type conditions, including both types of hepatocytes. Midazolam (MDZ) was tested as a representative substrate for CYP3A4 [43]. Cells were treated with MDZ for up to 24 h on different days of culture, with sampling at 2, 6, and 24 h after treatment. The collected media was processed using high-performance liquid chromatography tandem mass spectrometry (HPLC-MS/MS) to determine the concentration of both the remaining parent compound (MDZ) and metabolites formed (1′-OH MDZ and 1′-OH MDZ glucuronide). We also tested the metabolism of equimolar mixtures (1 or 5 µM) of 20 pesticides that were previously used to evaluate the metabolic competence of different in vitro liver models. Cells were treated on day 6 of culture, and media were collected for analysis 48 h thereafter. Samples were analyzed using either gas chromatography (GC)-MS/MS or HPLC-MS/MS to determine whether parent molecule concentrations diminished, consistent with the metabolic activity of the cells.
# The day when PHHs were seeded into PhysioMimix LC12 plates was defined as day 0 (Figure 1). PHHs were cultured in the PhysioMimix LC12 following the manufacturer’s protocols. PHHs were thawed into CHRM (CM7000, Thermo Fisher), centrifuged at 100× g for 10 min, resuspended in plating media, and then seeded into the PhysioMimix LC12 scaffold at a seeding density of 475,000–600,000 cells/chip. The flow was initiated at 1 µL/s.
# For co-culture conditions, THP-1 monocytes and HMEC-1 endothelial cells were seeded either on day 0 or 1 at a seeding density of 60,000–160,000 cells/chip or 60,000 cells/chip, respectively. Primary KCs, HSCs, and LSECs were seeded either on day 0 or 1 at a seeding density of 100,000 cells/chip, 35,000 cells/chip, and 70,000–140,000 cells/chip, respectively. Cell seeding ratios were determined based on previous experiments or reports of the physiological cell ratios in the human liver. Media were collected and exchanged every 1–3 days by aspirating and replacing media from the media reservoir (1.8 mL/chip).
# For evaluation of MDZ metabolism, cells were exposed on days 4–16 of culture to 5 µM MDZ (dissolved in methanol for the final concentration of 0.16% v/v). After drug addition, media were collected every 2, 6, and 24 h. After 24 h, the drug treatment media were replaced with fresh maintenance media. For the experiment with pesticide mixtures, we selected chemicals from the Agency for Toxic Substances and Disease Registry Substance Priority List, which contains compounds that are commonly detected at Superfund sites and are known to be hazardous to human health. A molar-equivalent mixture was created by combining all 20 pesticides and diluting them to a final concentration of 1 or 5 μM each in dimethyl sulfoxide (DMSO, final concentration 0.5% v/v). Media was collected 48 h after treatment for the analyses detailed below. For evaluation of immune-mediated toxicity with Trovafloxacin and LPS treatment, PHHs + THP-1 monocytes or PHHs + KCs were exposed on day 6 of culture to 25 or 100 µM of Trovafloxacin, with or without LPS. After 48 h, the drug treatment media were collected for biochemical assays detailed below.
# After treatment with MDZ or pesticide mixtures (Supplemental Table S3), 50 µL media samples were mixed with 100 µL of 0.1 or 1 µM internal standard (Caffeine-13C3, C-082, Millipore Sigma; Supplemental Table S3) solution in acetonitrile on ice, respectively. Samples were vortexed and centrifuged (12,000× g, 10 min, room temperature) to allow for protein precipitation. The supernatant was collected from each sample, dried under vacuum, and reconstituted in 50 µL aqueous mobile phase. The reconstituted samples were transferred to glass autosampler vials with 200 µL inserts and stored at −20 °C prior to HPLC-MS/MS analysis. […]
# [5] = PhysioMimix LC-12, PHH + THP-1, day 6, incubation 2 h
# [6] = PhysioMimix LC-12, PHH + THP-1, day 6, incubation 24 h
# [7] = PhysioMimix LC-12, PHH + THP-1, day 12, incubation 24 h
compound,measurement,setting,value
"OCc1ncc2n1-c1ccc(Cl)cc1C(c1ccccc1F)=NC2 [1′-OH-midazolam, 1-hydroxymidazolam]","1′-OH MDZ Formed, Mean ± S.D.",PHH (TF-HU8373) + THP-1 [1],0.088 ± 0.077 pmol/min/1 M Hep.
same,"1′-OH MDZ Formed, Median",PHH (TF-HU8373) + THP-1 [1],0.061 pmol/min/1 M Hep.
same,"1′-OH MDZ Formed, Mean ± S.D.",PHH (various donors) [2]; incubation 2 h,4.55 ± 2.27 pmol/min/1 M Hep.
same,"1′-OH MDZ Formed, Mean ± S.D.",PHH (various donors) [2]; incubation 24 h,0.216 ± 0.054 pmol/min/1 M Hep.
same,"1′-OH MDZ Formed, Mean ± S.D.",PHH (various donors) [3],100 ± 106 pmol/min/1 M Hep.
same,"1′-OH MDZ Formed, Median",PHH (various donors) [3],63.7 pmol/min/1 M Hep.
same,"1′-OH MDZ Formed, Mean ± S.D.",PHH (TF-HU8373) + THP-1 [4]; [5],2.54 ± 1.64 pmol/min/1 M Hep.
same,"1′-OH MDZ Formed, Median",PHH (TF-HU8373) + THP-1 [4]; [5],2.11 pmol/min/1 M Hep.
same,"1′-OH MDZ Formed, Mean ± S.D.",PHH (TF-HU8373) + THP-1 [4]; [6],0.836 ± 0.556 pmol/min/1 M Hep.
same,"1′-OH MDZ Formed, Median",PHH (TF-HU8373) + THP-1 [4]; [6],0.997 pmol/min/1 M Hep.
same,"1′-OH MDZ Formed, Mean ± S.D.",PHH (TF-HU8373) + THP-1 [4]; [7],0.971 ± 0.910 pmol/min/1 M Hep.
same,"1′-OH MDZ Formed, Median",PHH (TF-HU8373) + THP-1 [4]; [7],0.933 pmol/min/1 M Hep.
